Test results as given in patent EP3827825A1, “USE OF 3, 4-DIARYLPYRAZOLES AS ANTIBACTERIAL AGENTS” (Wageningen Universiteit, priority 2019, dated 2021).
Values after ≈ are worked out from the molar mass of the structure shown. Where two headings read alike, the source gives them in different places.

How the values were obtained:
S. aureus Newman = assay: Minimal inhibitory concentration (MIC), double-dilution in broth, OD600; type: cell-based, Staphylococcus aureus Newman; settings: unit assumed
Method: (§1) In short, a stock solution of 5 mg/mL of HKIs in DMSO was made. This stock was diluted to 50 µg/mL in broth in a 96 well plate. Dilutions were made (factor 2) directly in the plate with a multi-channel pipet. Bacteria cultured in suspension overnight were then added to the plate (except negative control) and the plate was incubated for 24 hours. After 24 hours the OD600 was measured using a spectrophotometer. A positive control (with bacteria, without HKI) was also measured on each plate.
Bacterial strains used in this study for antibacterial susceptibility testing (Table S2) were propagated using standard microbiological procedures. Minimal inhibitory concentrations (MICs) were determined following a standard double-dilution method (42), 73. […] For M. marinum, MICs were determined in Middlebrook 7H9 broth (Difco) and MICs were determined after 3 days incubation at 30 °C.
(§2) Grow the bacterial colonies to be tested from single colonies on an agar plate in LB broth or suitable bacterial growth medium overnight at 37°C. Prepare a 5 mg/mL stock solution of compounds to be tested in DMSO. One 96-well plate per bacterial strain was prepared. First, put 50 uL of medium to each well. Add 48 µL of medium to all wells in row A. Pipet 2 µL of antimicrobial master stock into the top well (row A). Beware, the antimicrobial concentration will be diluted 2x after adding the bacterial culture. Total volume in each well will be 100 µL. In A11, pipet 2 µL of DMSO. Make a serial dilution from row A to row H, pipetting 50 µL from the previous row into the new one. Mix well by pipetting up and down. Discard the last 50 µL so that there is 50 µl in each well In a clean, new plastic pipetting cup, dilute the overnight bacterial culture 100 times. Add 100 µL of bacterial overnight culture to 9900 µL of medium. Mix the suspension well. Once the serial dilutions are complete for all antimicrobial compounds, add 50 µL of diluted overnight bacterial culture to each well (except column 12). Mix by pipetting or put the plate on the shaker. Per 2 plates, close with parafilm around the edges and place in the incubator overnight. After overnight culturing, measure bacterial growth on the SpectraMax. The lowest concentration where no growth is observed is the MIC. To determine the MIB pipette 5 µL from each well of the 96 well plate where now growth was observed on to an LB agar plate, without antimicrobial. Put the plates in the incubator to grow overnight. The minimal concentration where no growth can be seen on the agar plate is the MBC.

S. suis = assay: as above; type: cell-based, Streptococcus suis; settings: unit assumed
Method: as §1, with “each plate. The MICs were not determined in duplo/triplicate in the same experiment, however, the MICs of several HKIs were measured in different experiments and no major differences (max. 1x dilution) were found in the MICs between the experiments.” for “each plate.”
(§3) Bacterial strains used in this study for antibacterial susceptibility testing (Table S2) were propagated using standard microbiological procedures. Minimal inhibitory concentrations (MICs) were determined following a standard double-dilution method (42), 73. MICs were recorded as the lowest concentration of the compound where no visible growth was observed. After plating the dilutions around the MIC or growing them in fresh MH media, minimal bactericidal concentration (MBC) was recorded as the lowest concentration of the compound at which no colonies were formed or no growth was observed, respectively. For M. marinum, MICs were determined in Middlebrook 7H9 broth (Difco) and MICs were determined after 3 days incubation at 30 °C.
as §2

P. multocida = assay: as above; type: cell-based, Pasteurella multocida; settings: unit assumed
Method: as §1, with “each plate. The MICs were not determined in duplo/triplicate in the same experiment, however, the MICs of several HKIs were measured in different experiments and no major differences (max. 1x dilution) were found in the MICs between the experiments.” for “each plate.”
as §3, §2

M. marinum = assay: Minimal inhibitory concentration (MIC), Middlebrook 7H9 broth, 3 days at 30 °C; type: cell-based, Mycobacterium marinum; settings: unit assumed
Method: as §1, with “each plate. The MICs were not determined in duplo/triplicate in the same experiment, however, the MICs of several HKIs were measured in different experiments and no major differences (max. 1x dilution) were found in the MICs between the experiments.” for “each plate.”
as §3, §2

E. coli JW5503 = type: cell-based, Escherichia coli; settings: unit assumed
Method: as §1, with “each plate. The MICs were not determined in duplo/triplicate in the same experiment, however, the MICs of several HKIs were measured in different experiments and no major differences (max. 1x dilution) were found in the MICs between the experiments.” for “each plate.”
as §3, §2

E. faecium Van A = assay: Minimal inhibitory concentration (MIC), double-dilution in broth, OD600; type: cell-based, Enterococcus faecium; settings: unit assumed
Method: as §1, with “each plate. The MICs were not determined in duplo/triplicate in the same experiment, however, the MICs of several HKIs were measured in different experiments and no major differences (max. 1x dilution) were found in the MICs between the experiments.” for “each plate.”
as §3, §2

HEK293 = assay: Cell toxicity, Alamar blue assay, 24 hours exposure; type: cell-based; settings: Homo sapiens
Method: (§4) Toxicity was primarily determined by measuring cytotoxicity with the Alamar blue assay. In short, cells (HEK293, NRK-52E and Caco-2) were plated in 96-well plates and cultured overnight. HKI compounds were diluted to concentrations ranging from 0.39 to 500 µg/mL in serum-free medium and added to the cells.
(§5) After exposure, cells were incubated for 24 hours. Experiments were mostly performed by single measurement. […] After 24 hours HKIs were removed from the cells and Alamar blue was added, incubated for 45 minutes and fluorescence was measured on a spectrophotometer. Alamar blue measures the conversion of blue, low fluorescent resazurin into high fluorescent pink resorufin. This conversion can only be made in viable mitochondria in viable cells and therefore this dye provides a measure for cytotoxicity.

NRK-52E = assay: as above; type: cell-based; settings: Rattus norvegicus, read-out: IC50 NRK-52E (50 mg/mL stock)
Method: as §4, §5

[1] = HEK293, read-out: IC50 HEK293 (5 mg/mL stock)
[2] = HEK293, read-out: IC50 HEK293 (50 mg/mL stock)

| Compound | MIC S. aureus Newman (S. aureus Newman) [µg/mL] | MIC S. suis (S. suis) [µg/mL] | MIC P. multocida (P. multocida) [µg/mL] | MIC M. marinum (M. marinum) [µg/mL] | MIC E. coli JW5503 (E. coli JW5503) [µg/mL] | MIC E. faecium Van A (E. faecium Van A) [µg/mL] | IC50 (HEK293; [1]) [µg/mL] | IC50 (NRK-52E) [µg/mL] | IC50 (HEK293; [2]) [µg/mL] |
| --- | --- | --- | --- | --- | --- | --- | --- | --- | --- |
| C=C(C)COc1ccc(-c2[nH]nc(C(F)(F)F)c2-c2ccc(Cl)cc2)c(O)c1 [Sep-29, 2-[4-(4-chlorophenyl)-5-(trifluoromethyl)-1∼{H}-pyrazol-3-yl]-5-(2-methylallyloxy)phenol] | 3.13 (≈ 7.66 µM) | 12.5 (≈ 30.6 µM) | > 50 | > 50 | 12.5 (≈ 30.6 µM) | 6.25 (≈ 15.3 µM) | 16.4 (≈ 40.1 µM) | 19.9 (≈ 48.7 µM) | – |
| Oc1cc(OCc2ccccc2Cl)ccc1-c1n[nH]c(C(F)(F)F)c1-c1ccc(Cl)cc1 [Sep-25, 5-(2-chlorobenzyl)oxy-2-[4-(4-chlorophenyl)-5-(trifluoromethyl)-1∼{H}-pyrazol-3-yl]pheno] | 3.13 (≈ 6.53 µM) | 12.5 (≈ 26.1 µM) | > 50 | 50 (≈ 104 µM) | > 50 | 12.5 (≈ 26.1 µM) | 19.3 (≈ 40.2 µM) | 17.3 (≈ 36 µM) | 18.1 (≈ 37.7 µM) |
| C=C(C)COc1ccc(-c2[nH]nc(C(F)(F)F)c2-c2ccccc2)c(O)c1 [Sep-9, 5-(2-methylallyloxy)-2-[4-phenyl-5-(trifluoromethyl)-1∼{H}-pyrazol-3-yl]phenol] | 6.25 (≈ 16.7 µM) | 25 (≈ 66.8 µM) | 50 (≈ 134 µM) | > 50 | 6.25 (≈ 16.7 µM) | 0.78 (≈ 2.08 µM) | 16.1 (≈ 43.1 µM) | ~10.9 (≈ 29 µM) | – |
| CCOc1ccc(-c2[nH]nc(C(F)(F)F)c2-c2ccc(Cl)cc2)c(O)c1 [May-27, 2-[4-(4-chlorophenyl)-5-(trifluoromethyl)-1∼{H}-pyrazol-3-yl]-5-ethoxy-phenol] | 3.13 (≈ 8.18 µM) | 3.13 (≈ 8.18 µM) | 25 (≈ 65.3 µM) | 50 (≈ 131 µM) | 3.13 (≈ 8.18 µM) | 3.13 (≈ 8.18 µM) | 10.8 (≈ 28.3 µM) | 181 (≈ 472 µM) | 118 (≈ 309 µM) |
| NNC(=O)COc1ccc(-c2n[nH]c(C(F)(F)F)c2-c2ccc(Br)cc2)c(O)c1 [May-12, 2-[4-[4-(4-bromophenyl)-5-(trifluoromethyl)-1∼{H}-pyrazol-3-yl]-3-hydroxy-phenoxy]acetohydrazide] | 12.5 (≈ 26.5 µM) | 6.25 (≈ 13.3 µM) | 50 (≈ 106 µM) | > 50 | 6.25 (≈ 13.3 µM) | 12.5 (≈ 26.5 µM) | 7.04 (≈ 14.9 µM) | 27.2 (≈ 57.7 µM) | – |
| COc1ccc(-c2c(C(F)(F)F)n[nH]c2-c2ccc(OCc3ccccc3)cc2O)cc1 [May-26, 5-benzoxy-2-[4-(4-methoxyphenyl)-5-(trifluoromethyl)-1∼{H}-pyrazol-3-yl]phenol] | 1.56 (≈ 3.54 µM) | 3.13 (≈ 7.11 µM) | > 50 | 12.5 (≈ 28.4 µM) | 3.13 (≈ 7.11 µM) | – | – | 9.64 (≈ 21.9 µM) | 4.8 (≈ 10.9 µM) |
| Oc1ccc(-c2n[nH]c(C(F)(F)F)c2-c2ccc(Cl)cc2)c(O)c1 [May-14, 4-[4-(4-chlorophenyl)-5-(trifluoromethyl)-1∼{H}-pyrazol-3-yl]resorcinol] | 3.13 (≈ 8.82 µM) | 12.5 (≈ 35.2 µM) | 25 (≈ 70.5 µM) | > 50 | 3.13 (≈ 8.82 µM) | 12.5 (≈ 35.2 µM) | – | 3.04 (≈ 8.57 µM) | 10.6 (≈ 29.9 µM) |
| CCOc1ccc(-c2[nH]nc(C(F)(F)F)c2-c2ccc(Br)cc2)c(O)c1 [May-6, 2-[4-(4-bromophenyl)-5-(trifluoromethyl)-1∼{H}-pyrazol-3-yl]-5-ethoxy-phenol] | 1.56 (≈ 3.65 µM) | 3.13 (≈ 7.33 µM) | > 50 | 50 (≈ 117 µM) | 3.13 (≈ 7.33 µM) | 3.13 (≈ 7.33 µM) | 4.53 (≈ 10.6 µM) | ~563 (≈ 1320 µM) | – |
| COc1ccc(-c2[nH]nc(C(F)(F)F)c2-c2ccc(Br)cc2)c(O)c1 [May-23, 2-[4-(4-bromophenyl)-5-(trifluoromethyl)-1∼{H}-pyrazol-3-yl]-5-methoxy-phenol] | 3.13 (≈ 7.58 µM) | 6.25 (≈ 15.1 µM) | 50 (≈ 121 µM) | > 50 | 3.13 (≈ 7.58 µM) | 3.13 (≈ 7.58 µM) | 8.38 (≈ 20.3 µM) | ~2.81 (≈ 6.81 µM) | 9 (≈ 21.8 µM) |
| NNC(=O)COc1ccc(-c2[nH]nc(C(F)(F)F)c2-c2ccccc2)c(O)c1 [May-25, 2-[3-hydroxy-4-[4-phenyl-5-(trifluoromethyl)-1∼{H}-pyrazol-3-yl]phenoxy]acetohy drazide] | 12.5 (≈ 31.9 µM) | – | 50 (≈ 127 µM) | – | 6.25 (≈ 15.9 µM) | 25 (≈ 63.7 µM) | 27.6 (≈ 70.3 µM) | 106 (≈ 271 µM) | – |
| COc1ccc(-c2n[nH]c(C(F)(F)F)c2-c2ccccc2)c(O)c1 [May-21, 5-methoxy-2-[4-phenyl-5-(trifluoromethyl)-1∼{H}-pyrazol-3-yl]phenol] | 12.5 (≈ 37.4 µM) | 25 (≈ 74.8 µM) | 50 (≈ 150 µM) | > 50 | 3.13 (≈ 9.36 µM) | – | 6.47 (≈ 19.4 µM) | ~15.6 (≈ 46.8 µM) | 46.9 (≈ 140 µM) |
| COc1ccc(-c2n[nH]c(C(F)(F)F)c2-c2ccccc2OC)c(O)c1 [May-19, 5-methoxy-2-[4-(2-methoxyphenyl)-5-(trifluoromethyl)-1∼{H}-pyrazol-3-yl]phenol] | 25 (≈ 68.6 µM) | 25 (≈ 68.6 µM) | 50 (≈ 137 µM) | 50 (≈ 137 µM) | – | > 50 | 5.74 (≈ 15.8 µM) | 24.1 (≈ 66.1 µM) | – |
| COc1ccc(-c2n[nH]c(C(F)(F)F)c2-c2ccc(Cl)cc2)c(O)c1 [May-16, 2-[4-(4-chlorophenyl)-5-(trifluoromethyl)-1∼{H}-pyrazol-3-yl]-5-methoxy-phenol] | 3.13 (≈ 8.49 µM) | 3.13 (≈ 8.49 µM) | 25 (≈ 67.8 µM) | 50 (≈ 136 µM) | 1.56 (≈ 4.23 µM) | – | 3.59 (≈ 9.74 µM) | – | – |
| CCOc1ccc(-c2n[nH]c(C)c2-c2ccc(Cl)cc2)c(O)c1 [Sep-22, 2-[4-(4-chlorophenyl)--5-methyl-1∼{H}-pyrazol-3-yl]-5-ethoxy-phenol] | 50 (≈ 152 µM) | 50 (≈ 152 µM) | > 50 | > 50 | – | > 50 | – | ~1480 (≈ 4510 µM) | 23.6 (≈ 71.8 µM) |
| COc1ccc(-c2n[nH]cc2-c2ccc(Cl)cc2)c(O)c1 [Sep-23, 2-[4-(4-chlorophenyl)-1∼{H}-pyrazol-5-yl]-5-methoxy-phenol] | 25 (≈ 83.1 µM) | > 50 | > 50 | > 50 | – | > 50 | 9.14 (≈ 30.4 µM) | 259 (≈ 861 µM) | 39.7 (≈ 132 µM) |
